In ChEMBL document CHEMBL5303766, “Data for DCP probe FHT-2344” (2022):

What was measured:
[1] = molecular target: Sodium-dependent dopamine transporter (Homo sapiens, UniProt Q01959); assay: GPCRScan assay: inhibition of DAT; set-up: radioligand conc. used [nm] 3.6 – 16.0, parental cells stable HEK
[2] = molecular target: T1, Peripheral plasma membrane protein CASK (Homo sapiens) (UniProt O14936); assay: CASK SGC Tm panel (DSF); details: for ΔTm: Compound concentration 10.0 uM
T1 sequence (whole entry): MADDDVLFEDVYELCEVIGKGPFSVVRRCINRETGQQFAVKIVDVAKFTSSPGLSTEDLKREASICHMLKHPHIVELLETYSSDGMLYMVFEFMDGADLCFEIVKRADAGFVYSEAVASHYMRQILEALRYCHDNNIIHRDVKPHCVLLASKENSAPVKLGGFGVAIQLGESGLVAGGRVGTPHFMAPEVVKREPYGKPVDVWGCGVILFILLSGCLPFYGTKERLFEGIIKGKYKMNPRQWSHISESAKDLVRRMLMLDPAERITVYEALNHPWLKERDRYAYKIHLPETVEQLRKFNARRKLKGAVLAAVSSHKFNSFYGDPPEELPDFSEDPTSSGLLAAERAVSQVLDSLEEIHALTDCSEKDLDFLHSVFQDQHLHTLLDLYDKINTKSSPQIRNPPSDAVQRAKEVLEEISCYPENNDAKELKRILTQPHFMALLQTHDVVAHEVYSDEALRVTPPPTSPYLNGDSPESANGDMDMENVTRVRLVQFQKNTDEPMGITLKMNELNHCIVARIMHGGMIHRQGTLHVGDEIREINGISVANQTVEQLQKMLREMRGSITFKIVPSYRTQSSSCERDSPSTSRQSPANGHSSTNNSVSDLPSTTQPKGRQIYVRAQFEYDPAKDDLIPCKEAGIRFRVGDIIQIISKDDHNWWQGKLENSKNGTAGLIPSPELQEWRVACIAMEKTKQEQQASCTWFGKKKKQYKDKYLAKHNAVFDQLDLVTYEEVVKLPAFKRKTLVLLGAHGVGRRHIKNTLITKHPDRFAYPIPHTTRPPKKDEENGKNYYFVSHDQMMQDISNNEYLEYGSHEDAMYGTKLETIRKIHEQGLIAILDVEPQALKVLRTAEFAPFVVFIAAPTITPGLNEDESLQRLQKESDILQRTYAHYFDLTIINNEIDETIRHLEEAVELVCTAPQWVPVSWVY

[3] = molecular target: AP2-associated protein kinase 1 (Homo sapiens) (UniProt Q2M2I8); assay: AAK1 SGC Tm panel (DSF); details: for ΔTm: Compound concentration 10.0 uM
[4] = molecular target: Calcium/calmodulin-dependent protein kinase type II subunit beta (Homo sapiens) (UniProt Q13554); assay: CAMK2B SGC Tm panel (DSF); details: for ΔTm: Compound concentration 10.0 uM
[5] = molecular target: Serine/threonine-protein kinase Chk2 (Homo sapiens) (UniProt O96017); assay: CHEK2 SGC Tm panel (DSF); details: for ΔTm: Compound concentration 10.0 uM
[6] = molecular target: Ephrin type-A receptor 2 (Homo sapiens) (UniProt P29317); assay: EPHA2 SGC Tm panel (DSF); details: for ΔTm: Compound concentration 10.0 uM
[7] = molecular target: Fibroblast growth factor receptor 3 (Homo sapiens) (UniProt P22607); assay: FGFR3 SGC Tm panel (DSF); details: for ΔTm: Compound concentration 10.0 uM
[8] = molecular target: Mitogen-activated protein kinase 8 (Homo sapiens) (UniProt P45983); assay: MAPK8 SGC Tm panel (DSF); details: for ΔTm: Compound concentration 10.0 uM
[9] = molecular target: Mitogen-activated protein kinase 9 (Homo sapiens) (UniProt P45984); assay: MAPK9 SGC Tm panel (DSF); details: for ΔTm: Compound concentration 10.0 uM
[10] = molecular target: Serine/threonine-protein kinase Nek7 (Homo sapiens) (UniProt Q8TDX7); assay: NEK7 SGC Tm panel (DSF); details: for ΔTm: Compound concentration 10.0 uM
[11] = molecular target: Proto-oncogene tyrosine-protein kinase Src (Homo sapiens) (UniProt P12931); assay: SRC SGC Tm panel (DSF); details: for ΔTm: Compound concentration 10.0 uM
[12] = molecular target: T2, Aurora kinase A (Homo sapiens) (UniProt O14965); assay: STK6 SGC Tm panel (DSF); details: for ΔTm: Compound concentration 10.0 uM
T2 sequence (whole entry): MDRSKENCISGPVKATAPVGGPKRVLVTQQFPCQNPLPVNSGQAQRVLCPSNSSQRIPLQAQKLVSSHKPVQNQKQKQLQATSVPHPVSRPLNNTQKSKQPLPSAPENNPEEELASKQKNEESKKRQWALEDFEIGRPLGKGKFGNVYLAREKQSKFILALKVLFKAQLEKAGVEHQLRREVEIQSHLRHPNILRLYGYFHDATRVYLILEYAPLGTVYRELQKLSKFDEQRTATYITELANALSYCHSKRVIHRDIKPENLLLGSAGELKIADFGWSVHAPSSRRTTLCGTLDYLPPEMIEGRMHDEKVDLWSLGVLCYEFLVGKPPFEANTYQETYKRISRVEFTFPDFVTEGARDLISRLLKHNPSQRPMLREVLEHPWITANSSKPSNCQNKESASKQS

[13] = molecular target: Bromodomain-containing protein 4 (Homo sapiens) (UniProt O60885); assay: BRD4 SGC Tm panel (DSF); details: for ΔTm: Compound concentration 10.0 uM
[14] = molecular target: T3, Ferrochelatase, mitochondrial (Homo sapiens) (UniProt P22830); assay: FECH SGC Tm panel (DSF); details: for ΔTm: Compound concentration 10.0 uM
T3 sequence (whole entry): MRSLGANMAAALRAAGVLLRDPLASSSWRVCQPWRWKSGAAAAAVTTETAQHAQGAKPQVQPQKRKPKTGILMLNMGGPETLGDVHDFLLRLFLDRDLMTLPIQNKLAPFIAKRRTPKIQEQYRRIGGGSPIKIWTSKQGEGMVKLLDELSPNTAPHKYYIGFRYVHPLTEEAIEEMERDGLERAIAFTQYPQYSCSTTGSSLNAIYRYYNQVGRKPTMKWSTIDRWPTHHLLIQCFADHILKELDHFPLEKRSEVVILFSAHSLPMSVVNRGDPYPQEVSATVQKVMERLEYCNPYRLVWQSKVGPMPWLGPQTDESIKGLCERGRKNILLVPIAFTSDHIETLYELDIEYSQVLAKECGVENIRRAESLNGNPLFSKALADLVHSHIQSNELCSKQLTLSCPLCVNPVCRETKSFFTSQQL

[15] = molecular target: Aurora kinase B (Homo sapiens) (UniProt Q96GD4); assay: AURKB SGC Tm panel (DSF); details: for ΔTm: Compound concentration 10.0 uM
[16] = molecular target: 5-hydroxytryptamine receptor 1A (Homo sapiens) (UniProt P08908); details: Compound concentration 10.0 uM
[17] = molecular target: Beta-1 adrenergic receptor (Homo sapiens) (UniProt P08588); details: Compound concentration 10.0 uM
[18] = molecular target: Muscarinic acetylcholine receptor M5 (Homo sapiens) (UniProt P08912); details: Compound concentration 10.0 uM
[19] = molecular target: Sigma non-opioid intracellular receptor 1 (Homo sapiens, UniProt Q99720); details: Compound concentration 10.0 uM

Proto-oncogene tyrosine-protein kinase Src (Homo sapiens), sequence (P12931 2-536 limits assumed): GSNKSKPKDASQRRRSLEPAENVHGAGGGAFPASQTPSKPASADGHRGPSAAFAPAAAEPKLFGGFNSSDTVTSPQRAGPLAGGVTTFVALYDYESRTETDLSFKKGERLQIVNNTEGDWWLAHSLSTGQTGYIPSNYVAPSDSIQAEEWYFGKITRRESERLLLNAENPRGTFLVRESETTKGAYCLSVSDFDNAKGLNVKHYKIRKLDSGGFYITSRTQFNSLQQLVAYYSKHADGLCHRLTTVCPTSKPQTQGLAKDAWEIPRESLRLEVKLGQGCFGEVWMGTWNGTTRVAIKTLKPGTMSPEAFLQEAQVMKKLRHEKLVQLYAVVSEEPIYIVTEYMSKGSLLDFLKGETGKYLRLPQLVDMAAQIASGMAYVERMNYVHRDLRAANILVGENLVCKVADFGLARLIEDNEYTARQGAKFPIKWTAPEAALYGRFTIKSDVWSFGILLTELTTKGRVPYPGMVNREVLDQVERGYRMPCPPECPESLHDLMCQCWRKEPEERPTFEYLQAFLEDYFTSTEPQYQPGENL
Mitogen-activated protein kinase 8 (Homo sapiens), sequence (P45983 whole entry): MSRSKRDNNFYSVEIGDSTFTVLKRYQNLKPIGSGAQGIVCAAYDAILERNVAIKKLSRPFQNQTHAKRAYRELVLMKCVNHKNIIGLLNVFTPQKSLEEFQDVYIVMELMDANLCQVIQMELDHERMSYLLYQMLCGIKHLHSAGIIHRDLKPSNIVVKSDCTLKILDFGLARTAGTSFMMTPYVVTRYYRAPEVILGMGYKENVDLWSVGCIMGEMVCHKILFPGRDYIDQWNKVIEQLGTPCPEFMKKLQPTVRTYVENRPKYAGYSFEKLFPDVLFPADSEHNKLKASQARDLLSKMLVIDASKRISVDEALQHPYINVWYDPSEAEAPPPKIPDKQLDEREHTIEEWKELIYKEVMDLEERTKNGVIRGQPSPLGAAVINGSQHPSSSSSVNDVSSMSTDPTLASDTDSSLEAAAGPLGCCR
Mitogen-activated protein kinase 9 (Homo sapiens), sequence (P45984 whole entry, looked up): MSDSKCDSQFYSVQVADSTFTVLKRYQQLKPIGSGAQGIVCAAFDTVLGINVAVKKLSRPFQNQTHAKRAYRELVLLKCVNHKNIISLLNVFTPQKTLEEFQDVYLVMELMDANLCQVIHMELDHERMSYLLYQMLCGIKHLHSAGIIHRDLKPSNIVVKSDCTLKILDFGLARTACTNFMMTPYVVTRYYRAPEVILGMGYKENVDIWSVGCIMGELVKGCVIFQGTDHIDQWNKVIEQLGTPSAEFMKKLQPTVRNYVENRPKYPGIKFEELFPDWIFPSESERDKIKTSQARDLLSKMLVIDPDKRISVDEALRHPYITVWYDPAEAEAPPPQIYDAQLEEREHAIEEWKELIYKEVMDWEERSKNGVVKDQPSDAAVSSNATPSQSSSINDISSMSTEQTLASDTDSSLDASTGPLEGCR
Sodium-dependent dopamine transporter, sequence (Q01959 whole entry): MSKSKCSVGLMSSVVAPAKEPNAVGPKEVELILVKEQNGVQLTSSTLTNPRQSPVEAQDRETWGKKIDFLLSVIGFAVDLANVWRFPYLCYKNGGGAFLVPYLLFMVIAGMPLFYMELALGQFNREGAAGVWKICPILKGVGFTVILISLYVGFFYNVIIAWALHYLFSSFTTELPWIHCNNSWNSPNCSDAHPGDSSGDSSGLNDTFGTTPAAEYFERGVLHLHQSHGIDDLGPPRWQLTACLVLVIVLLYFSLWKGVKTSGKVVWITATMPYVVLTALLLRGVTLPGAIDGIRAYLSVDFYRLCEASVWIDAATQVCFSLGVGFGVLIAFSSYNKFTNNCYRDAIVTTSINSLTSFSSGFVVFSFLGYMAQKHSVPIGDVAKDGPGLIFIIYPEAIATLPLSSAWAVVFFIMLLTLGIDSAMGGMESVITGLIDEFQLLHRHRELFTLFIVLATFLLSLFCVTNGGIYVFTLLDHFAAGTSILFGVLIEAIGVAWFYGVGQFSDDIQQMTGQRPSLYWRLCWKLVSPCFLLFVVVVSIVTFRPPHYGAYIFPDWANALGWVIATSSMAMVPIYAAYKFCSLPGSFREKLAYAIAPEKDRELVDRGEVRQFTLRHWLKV
Serine/threonine-protein kinase Nek7 (Homo sapiens), sequence (Q8TDX7 whole entry, looked up): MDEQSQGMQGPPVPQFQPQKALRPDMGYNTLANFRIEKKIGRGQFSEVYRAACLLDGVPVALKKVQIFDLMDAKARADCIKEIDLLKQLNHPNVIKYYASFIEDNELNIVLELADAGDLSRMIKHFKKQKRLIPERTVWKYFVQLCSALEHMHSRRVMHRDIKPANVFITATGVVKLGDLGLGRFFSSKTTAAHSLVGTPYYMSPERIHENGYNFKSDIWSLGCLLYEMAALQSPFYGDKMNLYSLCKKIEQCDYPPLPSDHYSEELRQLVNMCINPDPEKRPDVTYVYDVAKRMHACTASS
Ephrin type-A receptor 2 (Homo sapiens), sequence (P29317 whole entry): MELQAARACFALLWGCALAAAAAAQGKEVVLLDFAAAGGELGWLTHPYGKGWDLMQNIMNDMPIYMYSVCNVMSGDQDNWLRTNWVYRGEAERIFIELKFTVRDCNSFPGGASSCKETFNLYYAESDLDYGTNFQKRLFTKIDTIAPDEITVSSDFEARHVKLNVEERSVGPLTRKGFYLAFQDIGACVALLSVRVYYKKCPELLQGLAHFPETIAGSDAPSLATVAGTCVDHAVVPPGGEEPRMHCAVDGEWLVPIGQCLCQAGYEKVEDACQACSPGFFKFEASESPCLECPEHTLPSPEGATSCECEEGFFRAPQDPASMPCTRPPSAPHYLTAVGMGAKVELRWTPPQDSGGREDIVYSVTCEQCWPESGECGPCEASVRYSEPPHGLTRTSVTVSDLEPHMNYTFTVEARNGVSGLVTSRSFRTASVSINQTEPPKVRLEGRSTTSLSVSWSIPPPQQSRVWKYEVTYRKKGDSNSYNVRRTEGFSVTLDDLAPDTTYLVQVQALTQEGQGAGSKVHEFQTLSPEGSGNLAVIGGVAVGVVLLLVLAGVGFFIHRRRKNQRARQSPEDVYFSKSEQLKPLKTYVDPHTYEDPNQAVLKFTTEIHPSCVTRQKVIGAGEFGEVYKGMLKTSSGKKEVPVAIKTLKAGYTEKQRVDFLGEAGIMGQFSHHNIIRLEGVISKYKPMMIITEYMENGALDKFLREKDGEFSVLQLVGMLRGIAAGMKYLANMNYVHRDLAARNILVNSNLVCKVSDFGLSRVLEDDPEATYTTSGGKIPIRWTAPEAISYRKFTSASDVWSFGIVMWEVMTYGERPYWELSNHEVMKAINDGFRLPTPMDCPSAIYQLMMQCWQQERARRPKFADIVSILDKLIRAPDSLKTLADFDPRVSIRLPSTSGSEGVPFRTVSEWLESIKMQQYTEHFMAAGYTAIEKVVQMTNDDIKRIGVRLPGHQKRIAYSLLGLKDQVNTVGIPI
Fibroblast growth factor receptor 3 (Homo sapiens), sequence (P22607 23-806 limits assumed): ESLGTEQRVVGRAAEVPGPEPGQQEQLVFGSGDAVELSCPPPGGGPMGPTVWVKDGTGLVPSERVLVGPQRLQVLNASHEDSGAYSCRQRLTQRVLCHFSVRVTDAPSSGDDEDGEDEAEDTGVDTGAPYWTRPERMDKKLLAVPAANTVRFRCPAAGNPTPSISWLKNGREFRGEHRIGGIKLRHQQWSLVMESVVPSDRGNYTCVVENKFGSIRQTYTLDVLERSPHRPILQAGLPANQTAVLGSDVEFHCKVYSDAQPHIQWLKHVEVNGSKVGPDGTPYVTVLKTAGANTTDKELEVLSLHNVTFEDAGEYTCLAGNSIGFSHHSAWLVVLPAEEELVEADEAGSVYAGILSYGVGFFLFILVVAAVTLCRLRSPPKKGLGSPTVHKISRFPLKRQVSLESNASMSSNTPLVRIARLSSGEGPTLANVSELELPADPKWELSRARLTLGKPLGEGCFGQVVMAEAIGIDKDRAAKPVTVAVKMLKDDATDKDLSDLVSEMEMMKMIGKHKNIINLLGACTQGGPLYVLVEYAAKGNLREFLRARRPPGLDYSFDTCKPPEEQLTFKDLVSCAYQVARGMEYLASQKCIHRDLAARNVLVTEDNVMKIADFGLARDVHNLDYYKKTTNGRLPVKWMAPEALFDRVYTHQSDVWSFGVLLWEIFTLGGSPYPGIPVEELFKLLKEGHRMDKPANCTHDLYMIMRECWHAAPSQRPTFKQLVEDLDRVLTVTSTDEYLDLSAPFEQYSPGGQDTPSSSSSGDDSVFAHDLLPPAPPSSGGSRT
AP2-associated protein kinase 1 (Homo sapiens), sequence (Q2M2I8 whole entry, looked up): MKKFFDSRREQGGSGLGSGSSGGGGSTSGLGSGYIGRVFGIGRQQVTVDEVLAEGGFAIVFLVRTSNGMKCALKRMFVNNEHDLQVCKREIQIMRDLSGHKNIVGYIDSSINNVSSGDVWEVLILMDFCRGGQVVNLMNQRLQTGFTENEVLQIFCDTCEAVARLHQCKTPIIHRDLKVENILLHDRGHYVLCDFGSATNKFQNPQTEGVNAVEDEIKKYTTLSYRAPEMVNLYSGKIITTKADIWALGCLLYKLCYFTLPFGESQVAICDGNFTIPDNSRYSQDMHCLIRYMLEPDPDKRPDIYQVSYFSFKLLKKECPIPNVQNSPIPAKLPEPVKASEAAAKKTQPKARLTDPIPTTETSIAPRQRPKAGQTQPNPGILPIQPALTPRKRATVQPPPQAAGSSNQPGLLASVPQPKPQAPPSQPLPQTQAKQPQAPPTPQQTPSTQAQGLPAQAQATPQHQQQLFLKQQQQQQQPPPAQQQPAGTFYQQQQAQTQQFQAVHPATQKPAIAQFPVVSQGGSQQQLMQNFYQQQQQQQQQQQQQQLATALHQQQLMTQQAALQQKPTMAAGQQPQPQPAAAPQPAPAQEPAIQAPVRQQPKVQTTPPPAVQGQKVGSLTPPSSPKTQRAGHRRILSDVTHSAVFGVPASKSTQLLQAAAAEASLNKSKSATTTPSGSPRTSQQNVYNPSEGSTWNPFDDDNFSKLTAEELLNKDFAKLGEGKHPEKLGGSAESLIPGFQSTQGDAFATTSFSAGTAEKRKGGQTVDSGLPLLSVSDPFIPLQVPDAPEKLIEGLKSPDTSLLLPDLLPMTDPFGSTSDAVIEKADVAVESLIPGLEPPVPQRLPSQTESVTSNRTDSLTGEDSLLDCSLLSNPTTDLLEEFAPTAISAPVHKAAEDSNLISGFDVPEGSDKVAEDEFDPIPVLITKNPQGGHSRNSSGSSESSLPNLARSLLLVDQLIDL

SMILES	Ki [1]	pKi [1]	delta Tm Staurosporine positive control [2]	ΔTm [2]	delta Tm Staurosporine positive control [3]	ΔTm [3]	delta Tm Staurosporine positive control [4]	ΔTm [4]	delta Tm Staurosporine positive control [5]	ΔTm [5]	delta Tm Staurosporine positive control [6]	ΔTm [6]	delta Tm Staurosporine positive control [7]	ΔTm [7]	delta Tm Staurosporine positive control [8]	ΔTm [8]	delta Tm Staurosporine positive control [9]	ΔTm [9]	delta Tm Staurosporine positive control [10]	ΔTm [10]	also measured
COC[C@H](NC(=O)c1ccn(S(C)(=O)=O)c1)C(=O)Nc1nc(-c2cccc(-c3ccn(C)n3)c2)cs1	> 10 µM	< 5	4.91	0.501	11.6	-0.00871	14.5	0.588	16.7	-0.718	7.67	0.202	11.8	0.361	7.87	0.206	3.96	0.244	1.29	0.0604	delta Tm Staurosporine positive control [11]: 5.5; ΔTm [11]: -0.156; delta Tm Staurosporine positive control [12]: 16.5; ΔTm [12]: 0.943; delta Tm Staurosporine positive control [13]: 1.03; ΔTm [13]: -0.843; delta Tm Staurosporine positive control [14]: 1.69; ΔTm [14]: 0.0581; delta Tm Staurosporine positive control [15]: 13.6; ΔTm [15]: 1.29; inhibition [16]: 29.7%; inhibition [17]: 1.4%; inhibition [18]: 0.52%; inhibition [19]: 1.62%
C[C@H](NC(=O)c1cn(C2(C#N)CC2)cn1)C(=O)Nc1nc(-c2cccc(-c3ccn(C)n3)c2)cs1	> 10 µM	< 5	4.91	0.617	11.6	0.0243	14.5	0.509	16.7	-1.06	7.67	0.2	11.8	1.77	7.87	0.458	3.96	0.39	1.29	0.0219	delta Tm Staurosporine positive control [11]: 5.5; ΔTm [11]: 0.346; delta Tm Staurosporine positive control [12]: 16.5; ΔTm [12]: 0.205; delta Tm Staurosporine positive control [13]: 1.03; ΔTm [13]: -0.303; delta Tm Staurosporine positive control [14]: 1.69; ΔTm [14]: -0.558; delta Tm Staurosporine positive control [15]: 13.6; ΔTm [15]: 0.802; inhibition [16]: 23%; inhibition [17]: 3.85%; inhibition [18]: 4.67%; inhibition [19]: 83.2%
